Among the data in patent publication US20230293519A1, “INTEGRIN INHIBITORS AND USES THEREOF IN COMBINATION WITH OTHER AGENTS” (Pliant Therapeutics, Inc., priority 2021, published 2023) are IC50 values, retold here.

The experiment deals with recombinant human integrin αvβ6 (Homo sapiens (Human), UniProt P06756+P18564). The experiment is described as follows: Solid phase integrin αvβ6 binding assay. As to conditions: IC50 presented in four ranges; read-out: αvβ6 Inhibition IC50 (nM) - range. On the procedure: (§1) Microplates were coated with recombinant human integrin αvβ6 (2 µg/mL) in PBS (100 µL/well 25° C., overnight). The coating solution was removed, washed with wash buffer (0.05% Tween 20; 0.5 mM MnCl2; in 1x TBS). The plate was blocked with 200 µL/well of Block Buffer (1% BSA; 5% sucrose; 0.5 mM MnCl2; in 1x TBS) at 37° C. for 2 h. Dilutions of testing compounds and recombinant TGFβ1 LAP (0.67 µg/mL) in binding buffer (0.05% BSA; 2.5% sucrose; 0.5 mM MnCl2; in 1x TBS) were added. The plate was incubated for 2 hours at 25° C., washed, and incubated for 1 hour with Biotin-Anti-hLAP. Bound antibody was detected by peroxidase-conjugated streptavidin. The IC50 values for testing compounds were calculated by a four-parameter logistic regression.
The compounds tested were compound samples prepared according to procedures described in the Synthetic Examples section, with the stereochemical purity as indicated in the Examples.
as §1, with “A third series of exemplary compounds was selected for testing in the solid phase integrin αvβ6 binding assay. The compounds tested were compound samples prepared according to procedures described in the Synthetic Examples section, with the stereochemical purity as indicated in the Examples. As in Example B1, microplates” for “Microplates”

Chain of recombinant human integrin αvβ6 (P06756 31-889): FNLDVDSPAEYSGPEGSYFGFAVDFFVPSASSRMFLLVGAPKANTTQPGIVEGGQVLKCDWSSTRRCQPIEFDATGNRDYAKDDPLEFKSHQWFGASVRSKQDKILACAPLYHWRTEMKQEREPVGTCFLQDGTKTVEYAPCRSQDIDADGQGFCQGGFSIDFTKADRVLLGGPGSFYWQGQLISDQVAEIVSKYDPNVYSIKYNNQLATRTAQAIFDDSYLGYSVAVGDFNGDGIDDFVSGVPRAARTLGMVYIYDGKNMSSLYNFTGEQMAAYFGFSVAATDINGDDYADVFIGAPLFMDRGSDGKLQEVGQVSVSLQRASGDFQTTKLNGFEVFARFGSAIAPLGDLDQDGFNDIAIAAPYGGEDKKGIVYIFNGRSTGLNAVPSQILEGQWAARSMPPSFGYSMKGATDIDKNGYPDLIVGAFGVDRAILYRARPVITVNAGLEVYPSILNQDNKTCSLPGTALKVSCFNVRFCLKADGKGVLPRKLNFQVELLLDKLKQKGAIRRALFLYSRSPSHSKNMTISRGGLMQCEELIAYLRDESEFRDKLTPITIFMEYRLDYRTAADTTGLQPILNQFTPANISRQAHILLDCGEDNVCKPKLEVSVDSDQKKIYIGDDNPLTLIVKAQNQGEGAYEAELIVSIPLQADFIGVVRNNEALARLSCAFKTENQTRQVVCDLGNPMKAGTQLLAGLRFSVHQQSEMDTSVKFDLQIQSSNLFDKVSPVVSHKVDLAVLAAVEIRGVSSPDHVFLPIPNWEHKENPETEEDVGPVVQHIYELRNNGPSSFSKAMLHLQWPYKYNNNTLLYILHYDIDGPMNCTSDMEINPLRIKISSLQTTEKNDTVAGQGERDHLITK
Chain of recombinant human integrin αvβ6 (P06756 890-992 partner): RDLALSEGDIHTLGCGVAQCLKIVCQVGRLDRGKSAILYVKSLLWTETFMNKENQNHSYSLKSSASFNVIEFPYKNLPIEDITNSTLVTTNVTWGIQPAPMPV
Chain of recombinant human integrin αvβ6 (P18564 22-707): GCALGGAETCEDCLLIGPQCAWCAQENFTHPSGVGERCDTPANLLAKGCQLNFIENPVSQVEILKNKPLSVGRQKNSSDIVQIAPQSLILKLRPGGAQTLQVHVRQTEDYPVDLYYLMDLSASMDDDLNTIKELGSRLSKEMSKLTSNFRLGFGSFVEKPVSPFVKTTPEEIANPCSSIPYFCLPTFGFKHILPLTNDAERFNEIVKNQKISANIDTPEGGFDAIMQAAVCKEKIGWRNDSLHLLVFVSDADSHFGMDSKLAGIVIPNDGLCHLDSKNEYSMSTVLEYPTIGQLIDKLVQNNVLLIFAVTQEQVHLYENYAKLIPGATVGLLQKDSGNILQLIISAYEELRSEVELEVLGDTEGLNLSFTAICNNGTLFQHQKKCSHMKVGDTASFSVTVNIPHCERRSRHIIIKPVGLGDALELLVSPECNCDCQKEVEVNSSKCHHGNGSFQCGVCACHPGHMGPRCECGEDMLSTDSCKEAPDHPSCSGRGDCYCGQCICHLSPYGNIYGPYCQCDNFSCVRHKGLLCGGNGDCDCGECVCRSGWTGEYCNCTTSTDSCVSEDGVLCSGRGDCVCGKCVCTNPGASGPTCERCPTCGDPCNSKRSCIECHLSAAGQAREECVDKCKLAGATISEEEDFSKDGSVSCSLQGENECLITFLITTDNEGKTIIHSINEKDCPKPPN

One may read the IC50 as the concentration needed to halve the response being measured. Consider `O=C(O)[C@H](CCN(CCCCc1ccc2c(n1)NCCC2)CC(F)F)Nc1cc(-c2ccccc2)ncn1` [compound 142], for which the IC50 was above 1000 nM. Then `CO[C@H](C)CN(CCCCc1ccc2c(n1)NCCC2)CC[C@H](Nc1cc(-n2cccn2)ncn1)C(=O)O` [compound 77], with below 50 nM. Then `O=C(O)[C@H](CCN(CCCCc1ccc2c(n1)NCCC2)CC1(F)COC1)Nc1ncnc2ccccc12` [compound 147], with 50 to 250 nM; and `O=C(O)[C@H](CCN(CCCCc1ccc2c(n1)NCCC2)CCOc1cncc(F)c1)Nc1ncnc2ccccc12` [compound 58], with below 50 nM; and `COC[C@@H](F)CN(CCCCc1ccc2c(n1)NCCC2)CC[C@H](Nc1ncncc1-c1ccccc1)C(=O)O` [compound 110], with below 50 nM. Then `CO[C@H](C)CN(CCCCc1ccc2c(n1)NCCC2)CC[C@H](Nc1nc(C)nc2cc(F)ccc12)C(=O)O` [compound 65], with below 50 nM; and `CO[C@H](C)CN(CCCCc1ccc2c(n1)NCCC2)CC[C@H](Nc1ncnc2cn[nH]c12)C(=O)O` [compound 79], with below 50 nM; and `Cn1ncc2c(N[C@@H](CCN(CCCF)CCCCc3ccc4c(n3)NCCC4)C(=O)O)ncnc21` [compound 136], with below 50 nM. As for `O=C(O)[C@H](CCN(CCCF)CCCCc1ccc2c(n1)NCCC2)Nc1ncnc2ccccc12` [compound 30], the IC50 was below 50 nM. For `COCCN(CCCCc1ccc2c(n1)NCCC2)CC[C@H](Nc1nccc2ccccc12)C(=O)O` [compound 34], the IC50 was above 1000 nM. For `COCCN(CCCCc1ccc2c(n1)NCCC2)CC[C@H](Nc1nc(C)nc2cc(F)ccc12)C(=O)O` [compound 12], the concentration for half-maximal inhibition (IC50) is below 50 nM.

Regarding `CS(=O)(=O)CCN(CCCCc1ccc2c(n1)NCCC2)CC[C@H](Nc1nc(-c2cccnc2)nc2ccccc12)C(=O)O` [compound 107], the IC50 fell in the range of 250 to 1000 nM. Then `O=C(O)[C@H](CCN(CCCCc1ccc2c(n1)NCCC2)C1CC(F)(F)C1)Nc1ncnc2ccccc12` [compound 9], with above 1000 nM. Consider `CS(=O)(=O)CCN(CCCCc1ccc2c(n1)NCCC2)CC[C@H](Nc1ncnc2[nH]ncc12)C(=O)O` [compound 125], for which the IC50 was in the range of 50 to 250 nM. Then `COCCN(CCCCc1ccc2c(n1)NCCC2)CC[C@H](Nc1cc(-n2cccn2)ncn1)C(=O)O` [compound 44], with below 50 nM; and `Cc1ncccc1OCCN(CCCCc1ccc2c(n1)NCCC2)CCC(Nc1ncnc2ccccc12)C(=O)O` (centres unmarked) [compound 52], with below 50 nM; and `COCCN(CCCCc1ccc2c(n1)NCCC2)CC[C@H](Nc1nc(C(F)(F)F)nc2ccccc12)C(=O)O` [compound 14], with below 50 nM. Then `CS(=O)(=O)CCN(CCCCc1ccc2c(n1)NCCC2)CC[C@H](Nc1ncnc2ccccc12)C(=O)O` [compound 27], with below 50 nM; and `COCCN(CCCCc1ccc2c(n1)NCCC2)CC[C@H](Nc1ncnc2cccc(F)c12)C(=O)O` [compound 18], with below 50 nM; and `COCCN(CCCCc1ccc2c(n1)NCCC2)CC[C@H](Nc1ccnc(C(F)(F)F)n1)C(=O)O` [compound 24], with below 50 nM. Then `Cc1cc(N[C@@H](CCN(CCCCc2ccc3c(n2)NCCC3)CC(F)F)C(=O)O)nc(-c2ccncc2)n1` [compound 122], with 250 to 1000 nM; and `CS(=O)(=O)CCN(CCCCc1ccc2c(n1)NCCC2)CC[C@H](Nc1ncc(Br)cn1)C(=O)O` [compound 103], with above 1000 nM; and `Cc1ncccc1OCCN(CCCCc1ccc2c(n1)NCCC2)CC[C@H](Nc1ncnc2cccnc12)C(=O)O` [compound 54], with below 50 nM.

In the case of `O=C(O)[C@H](CCN(CCCCc1ccc2c(n1)NCCC2)CCC(F)F)Nc1ccnc(C2CC2)n1` [compound 135], the 50% inhibitory concentration (IC50) was in the range of 50 to 250 nM. Then `CO[C@H](C)CN(CCCCc1ccc2c(n1)NCCC2)CC[C@H](Nc1ncc(C2CC2)cn1)C(=O)O` [compound 124], with below 50 nM. Then `O=C(O)[C@H](CCN(CCCCc1ccc2c(n1)NCCC2)CC(F)F)Nc1ncc(Br)cn1` [compound 96], with above 1000 nM; and `O=C(O)[C@H](CCN(CCCCc1ccc2c(n1)NCCC2)CCC(F)F)Nc1ncnc2ccccc12` [compound 29], with below 50 nM. Then `CN(C)C(=O)CN(CCCCc1ccc2c(n1)NCCC2)CC[C@H](Nc1ncnc2ccccc12)C(=O)O` [compound 64], with below 50 nM.

Take `COCCN(CCCCc1ccc2c(n1)NCCC2)CC[C@H](Nc1ncnc2c(F)cccc12)C(=O)O` [compound 20]: the IC50 is below 50 nM. Then `O=C(O)[C@H](CCN(CCCCc1ccc2c(n1)NCCC2)CC(F)F)Nc1ncncc1-c1ccccc1` [compound 119], with above 1000 nM; and `O=C(O)[C@H](CCN(CCCCc1ccc2c(n1)NCCC2)CCOCC(F)F)Nc1ncnc2ccccc12` [compound 50], with below 50 nM. Then `O=C(O)[C@H](CCN(CCCCc1ccc2c(n1)NCCC2)CC(CO)CO)Nc1ncnc2ccccc12` [compound 130], with below 50 nM; and `O=C(O)[C@H](CCN(CCCCc1ccc2c(n1)NCCC2)CCOc1ccccc1)Nc1cc(-c2ccccc2)ncn1` [compound 93], with below 50 nM.

On to `COCCN(CCCCc1ccc2c(n1)NCCC2)CC[C@H](Nc1cc(C)nc(C(F)(F)F)n1)C(=O)O` [compound 26], for which the IC50 is below 50 nM. Then `Cn1ncc2c(N[C@@H](CCN(CCCCc3ccc4c(n3)NCCC4)CCOc3ccc(F)cc3)C(=O)O)ncnc21` [compound 123], with below 50 nM; and `O=C(O)[C@H](CCN(CCCCc1ccc2c(n1)NCCC2)CCOc1ccccc1)Nc1ncc(Br)cn1` [compound 83], with below 50 nM; and `Cc1nc(N[C@@H](CCN(CCCCc2ccc3c(n2)NCCC3)CCOc2ccc(F)cc2)C(=O)O)c2ccc(F)cc2n1` [compound 40], with below 50 nM. Then `CS(=O)(=O)CCN(CCCCc1ccc2c(n1)NCCC2)CC[C@H](Nc1cc(-n2cccn2)ncn1)C(=O)O` [compound 126], with above 1000 nM; and `O=C(O)[C@H](CCN(CCCCc1ccc2c(n1)NCCC2)CC(F)F)Nc1cc(-n2cccn2)ncn1` [compound 98], with above 1000 nM.

Turning to `CN(C)C(=O)CN(CCCCc1ccc2c(n1)NCCC2)CC[C@H](Nc1ncnc2c1cnn2C)C(=O)O` [compound 140], the IC50 was below 50 nM. Then `O=C(O)[C@H](CCN(CCCCc1ccc2c(n1)NCCC2)CC(F)F)Nc1ccnc(C(F)(F)F)n1` [compound 97], with above 1000 nM. Take `CO[C@H](C)CN(CCCCc1ccc2c(n1)NCCC2)CC[C@H](Nc1ncc(C#N)cn1)C(=O)O` [compound 84]: the half-inhibitory concentration (IC50) lay in the range of 250 to 1000 nM. On to `O=C(O)[C@H](CCN(CCCCc1ccc2c(n1)NCCC2)C1CC1)Nc1ncc(C(F)(F)F)cn1` [compound 114], for which the half-inhibitory concentration (IC50) was below 50 nM.

As to `CO[C@H](C)CN(CCCCc1ccc2c(n1)NCCC2)CC[C@H](Nc1ccnc(C(F)(F)F)n1)C(=O)O` [compound 87], the IC50 was 250 to 1000 nM. Then `COCCN(CCCCc1ccc2c(n1)NCCC2)CC[C@H](Nc1ncnc2cc(F)ccc12)C(=O)O` [compound 7], with below 50 nM. Then `Cc1ccc(OCCN(CCCCc2ccc3c(n2)NCCC3)CC[C@H](Nc2ncnc3ccccc23)C(=O)O)cn1` [compound 59], with below 50 nM; and `O=C(O)[C@H](CCN(CCCCc1ccc2c(n1)NCCC2)CCOCC(F)(F)F)Nc1ncnc2cccnc12` [compound 51], with below 50 nM.
